Results reported in US6001880A, “Alkylenediamine derivative, anti-ulcer drug, and antibacterial drug” (Shiseido Co., Ltd., priority 1997, dated 1999).

Tested on: stress ulcer formation in rats
Assay: WIS: Restraint and Water Immersion Stress-Induced Ulcer Inhibition Test
Format: in vivo, rat (male Crj:SD or Slc:SD)
Settings: 100 mg/kg oral, 10 minutes before 7 h restraint and water immersion (21° C.)
Procedure: WIS: Restraint and Water Immersion Stress-Induced Ulcer Inhibition Test
The degree of inhibition of the stress ulcer formation is tested.
Male Crj:SD or Slc:SD rats (6 to 7-week-old) were fasted overnight, but allowed free access to water. Each group has 5 to 8 of these rats. The sample compound was dissolved or suspended in an aqueous solution of 0.3% sodium carboxymethylcellulose or 0.05% Tween 80 and then was orally administered (100 mg/10 ml/kg). To a control group, the vehicle was administered. 10 minutes later, the rats were placed in a stress cage and immersed to the level of xipfoid process in a water bath (21° C.) for 7 hours. At the end of the stress, the rats were sacrificed by inhalation of ether or carbon dioxide. Then, the stomach of each was removed, inflated by injecting 10 ml of 5% formalin neutral buffer solution, and immersed in 1% formalin neutral buffer solution for 30 minutes or more to be fixed. The stomach was incised along the greater curvature and then the length of each erosion in the glandular portion was determined under dissecting microscope. The sum of the length of erosions per stomach was defined as ulcer index (UI).
The effect obtained when 100 mg/kg of the sample compound had been administered was expressed as ulcer formation inhibitory rate (%) as follows:
ulcer formation inhibitory rate (%)=(1-(UI in sample group/UI in control

SMILES | WIS: ulcer formation inhibitory rate
CCN(CC)CCNC(=O)c1ccccc1OC/C=C(\C)CCC=C(C)C [Example 2] | 82%
CCN(CC)CCNC(=O)c1ccc(OCC=C(C)C)cc1 [Example 3] | 88%
CCN(CC)CCNC(=O)c1ccc(OC/C=C(/C)CCC=C(C)C)cc1 [Example 5] | 90%
CCC(C)N(CCNC(=O)c1ccc(OC/C=C(\C)CCC=C(C)C)cc1)C(C)CC (stereo not drawn) [Example 8] | 58%
CC(C)=CCC/C(C)=C/COc1ccccc1C(=O)NCCN(C)C [Example 13] | 75%
CCN(CC)CCNC(=O)c1ccc(OC/C=C(\C)CCC=C(C)C)cc1OC/C=C(\C)CCC=C(C)C [Example 15] | 92%
CCN(CC)CCNC(=O)c1ccc(OCC=C(C)C)cc1OCC=C(C)C [Example 20] | 67%
CCN(CC)CCNC(=O)c1cc(OCC=C(C)C)ccc1OCC=C(C)C [Example 21] | 77%
CCN(CC)CCNC(=O)c1ccc(OCC=C(C)C)c(OCC=C(C)C)c1 [Example 22] | 81%
CCN(CC)CCNC(=O)c1ccccc1SC/C=C(\C)CCC=C(C)C [Example 25] | 82%
CC(C)=CCC/C(C)=C/CN(C/C=C(\C)CCC=C(C)C)c1ccc(C(=O)NCCN(C(C)C)C(C)C)cc1 [Example 27] | 45%
CCN(CC)CCNC(=O)c1ccc(OC)c(OC/C=C(\C)CCC=C(C)C)c1 [Example 29] | 81%

Tested on: isolated gastric fundic gland
Assay: CAP: Acid Secretion Inhibition Test In Vitro ([14C]-aminopyrine uptake)
Format: cell-based, rabbit (male Japanese White)
Settings: Oryctolagus cuniculus; final concentration 10^-5 M; histamine 10^-5 M stimulation; read-out: CAP: acid secretion inhibitory rate
Procedure: CAP: Acid Secretion Inhibition Test In Vitro
The acid secretion inhibitory activity in a cell level is studied. It can also be used for studying the mechanism of the effect.
First, an isolated gastric fundic gland sample was prepared. Namely, a male Japanese White rabbit (2.5 to 3 kg) was anesthetized to death with Nembutal™ and then the abdomen was incised. Immediately thereafter, the stomach was removed and, after its pyloric and cardiac antrum were severed, incised along its greater curvature into two sheets. The gastric contents adhering to the mucosal surface was washed out with ice-cooled PBS (-) and then carefully washed therein. The gastric wall was spread on a cork board with its mucosal surface facing up and the feed and mucus thereon were completely removed with sterile gauze. The mucosa was separated therefrom by a spatula and then collected in ice-cooled PBS (-). After being washed twice with PBS (-), the mucosa was minced into 2-3 mm^3 pieces by scissors. These pieces were further washed twice with a nutrient solution. The nutrient solution comprises 132.4 mM of NaCl, 5.4 mM of KCl, 5 mM of Na2 HPO4. 12H2 O, 1 mM of NaH2 PO4.2H2 O, 1.2 mM of MgSO4, 1 mM of CaCl2, 25 mM of HEPES, 2 mg/ml of glucose, and 1 mg/ml of BSA.
Into 70 ml of the nutrient solution containing 1 mg/ml of collagenase, minced mucosal pieces were dispersed and intensely stirred in a conical flask with a stirrer at 37° C. for 40 to 60 minutes. During this period, 100% O2 was sprayed on the nutrient solution surface and the pH was appropriately measured such that it was immediately adjusted to pH 7.4, when the value was therebelow, with a base. The nutrient solution was added to the reaction solution so as to attain the total amount of about 200 ml. After being filtered through a mesh, the suspension was divisionally introduced into 50 ml centrifuge tubes and left for 15 minutes such that gastric fundic gland was deposited. The supernatant was repeatedly removed by an aspirator, dispersed in the nutrient solution, and then left such that the gastric fundic gland was washed three times. At this time, without using a pipette, the suspension was alternately introduced into two centrifuge tubes so as to effect dispersion. The number of cells was counted under microscope and adjusted to 1.6×10^6 cells/ml.
Then, [^14 C]-aminopyrine uptake test was performed. After an Eppendorf tube was weighed, 10 μl (final concentration: 10^-5 M) of histamine dissolved in the above-mentioned nutrient solution, 10 μl (final concentration: […]) of the test compound dissolved in DMSO, and 10 μl (final concentration: 0.05 μCi/ml) of [^14 C]-aminopyrine diluted with the nutrient solution were introduced therein and then 970 μl of the isolated gastric fundic gland suspension prepared above was added thereto. Subsequently, this mixture was shaken at 37° C. for 40 minutes at 125 cycles/minute. After being centrifuged for 30 seconds, 200 μl of its supernatant was collected into a mini-vial, while the rest was removed by an aspirator. The gland pellet was completely dried as the tube with its lid being opened was kept for one night in a drying oven at 80° C. and then the lid was closed and the weight was determined at room temperature. Then 100 μl of 1N KOH was added thereto and the tube with its lid being closed was treated at 60° C. for 1 to 2 hours so as to dissolve the pellet. Then, the contents thereof were transferred to a mini-vial. Into the mini-vial containing the supernatant or gland pellet, 4 ml of Atomlite™ was added and then the radioactivity was measured by a liquid scintillation counter. Here, after the radioactivity of the gland pellet was corrected by using a sample in which 20 mM of NaSCN was added so as to cancel the hydrogen ion concentration gradient, the integration ratio of aminopyrine specifically trapped by the gland pellet was calculated. This experiment was performed in duplicate.
Here, its principle will be briefly explained. […]

SMILES | inhibition at 10 µM
CCN(CC)CCNC(=O)c1ccccc1OC/C=C(\C)CCC=C(C)C [Example 2] | 99.9%
CCN(CC)CCNC(=O)c1ccc(OCC=C(C)C)cc1 [Example 3] | 70.8%
CCN(CC)CCNC(=O)c1ccc(OC/C=C(/C)CCC=C(C)C)cc1 [Example 5] | 109%
CCC(C)N(CCNC(=O)c1ccc(OC/C=C(\C)CCC=C(C)C)cc1)C(C)CC (stereo not drawn) [Example 8] | 99.9%
CC(C)=CCC/C(C)=C/COc1ccccc1C(=O)NCCN(C)C [Example 13] | 96.6%
CCN(CC)CCNC(=O)c1ccc(OC/C=C(\C)CCC=C(C)C)cc1OC/C=C(\C)CCC=C(C)C [Example 15] | 96.5%
CCN(CC)CCNC(=O)c1ccc(OCC=C(C)C)cc1OCC=C(C)C [Example 20] | 100%
CCN(CC)CCNC(=O)c1cc(OCC=C(C)C)ccc1OCC=C(C)C [Example 21] | 100%
CCN(CC)CCNC(=O)c1ccc(OCC=C(C)C)c(OCC=C(C)C)c1 [Example 22] | 99.8%
CCN(CC)CCNC(=O)c1ccccc1SC/C=C(\C)CCC=C(C)C [Example 25] | 96.1%
CC(C)=CCC/C(C)=C/CN(C/C=C(\C)CCC=C(C)C)c1ccc(C(=O)NCCN(C(C)C)C(C)C)cc1 [Example 27] | 38.5%
CCN(CC)CCNC(=O)c1ccc(OC)c(OC/C=C(\C)CCC=C(C)C)c1 [Example 29] | 100%

Tested on: not listed separately
Assay: MTT: Cell Damaging and Protecting Effect Test
Format: cell-based, rabbit (male Japanese White)
Settings: rabbit, gastric corpus mucosa cells, final concentration 10^-4 M, smaller value is better, read-out: MTT: cell damaging rate
Excerpt: MTT: Cell Damaging and Protecting Effect Test
It is confirmed that there is no toxicity in cell level. Those having a toxicity in cell level are inappropriate as an anti-ulcer drug.
A male Japanese White rabbit (2.5 to 3 kg) was anesthetized to death by Nembutal™ and, immediately thereafter, its stomach was removed. The greater curvature of the stomach was incised so as to remove the stomach contents therefrom. After the mucosal surface was washed with HBSS (Hanks' Balanced Salt Solution), the stomach in ice-cooled HBSS was transferred to a laboratory. Then, after the pyloric antrum was removed, the gastric corpus mucosa was separated by a spatula and then minced into 2 to 3 mm^3 pieces in BME (Basal Medium Eagle). Thereafter, these pieces were shaken at 120 to 130 cycles/minute for 15 minutes at 37° C. in BME 60 ml containing 280 U/ml of dispase and 30 to 50 U/ml of collagenase. Here, the concentration of collagenase was appropriately changed for each lot in view of the state of cells. The pieces were washed twice with EBSS (Earle's Balanced Salt Solution) containing 1 mM of EDTA and then shaken in MEM (Minimum Essential Medium) containing 1 mM of EDTA at 37° C. for 5 minutes. Subsequently, they were shaken in the dispase and collagenase having the same concentrations as those mentioned above for 15 minutes so as to remove the supernatant and then further shaken at 37° C. for 50 to 60 minutes at 120 to 130 cycles/minute. Then, after being washed twice with HBSS, Ham F12 containing 2% of Ultrocer G™ was used to attain the concentration of 1×10^6 cells/ml. Thus formed suspension was dispensed in each well of a 96-well plate by 200 μl. The plate was incubated in the atmosphere composed of 5% CO2 and 95% air at 37° C. for three days so as to attain a confluent state and then subjected to MTT assay.
The sample compound was dissolved in DMSO so as to attain a concentration of 10^-2 M and then diluted with HBSS containing 2% of Ultrocer G™ so as to attain a final concentration of 10^-4 M. To each group, which 8 wells were used for, 10 μl of MTT reagent was added immediately after 100 μl of the medium in each well was exchanged for same volume of the resulting solution of the sample compound. After being incubated in an atmosphere composed of 5% CO2 and 95% air at 37° C. for 4 hours, thus formed solution was centrifuged and then its supernatant was discarded. Subsequently, 100 μl of 100% ethanol was added to the residue so as to dissolve MTT formazan. Then, the absorbance (OD: 570 to 630) was measured by a microplate reader. This method utilizes a phenomenon in which MTT is changed to MTT formazan only by mitochondria of living cells so as to change color.
The cell damaging or cell protecting effect of the sample compound at the final concentration of 10^-4 M was expressed as cell damaging rate (%) as follows:
cell damaging rate (%)=(1-(absorbance in sample group/absorbance in control
Accordingly, the smaller value is better in the cell damaging rate.

SMILES | cytotoxicity at 4 h, 100 µM
CCN(CC)CCNC(=O)c1ccccc1OC/C=C(\C)CCC=C(C)C [Example 2] | 28%
CCN(CC)CCNC(=O)c1ccc(OCC=C(C)C)cc1 [Example 3] | 1%
CCN(CC)CCNC(=O)c1ccc(OC/C=C(/C)CCC=C(C)C)cc1 [Example 5] | 30%
CCC(C)N(CCNC(=O)c1ccc(OC/C=C(\C)CCC=C(C)C)cc1)C(C)CC (stereo not drawn) [Example 8] | 38%
CC(C)=CCC/C(C)=C/COc1ccccc1C(=O)NCCN(C)C [Example 13] | 19%
CCN(CC)CCNC(=O)c1ccc(OC/C=C(\C)CCC=C(C)C)cc1OC/C=C(\C)CCC=C(C)C [Example 15] | 44%
CCN(CC)CCNC(=O)c1ccc(OCC=C(C)C)cc1OCC=C(C)C [Example 20] | 28%
CCN(CC)CCNC(=O)c1cc(OCC=C(C)C)ccc1OCC=C(C)C [Example 21] | 36%
CCN(CC)CCNC(=O)c1ccc(OCC=C(C)C)c(OCC=C(C)C)c1 [Example 22] | 16%
CCN(CC)CCNC(=O)c1ccccc1SC/C=C(\C)CCC=C(C)C [Example 25] | 19%
CC(C)=CCC/C(C)=C/CN(C/C=C(\C)CCC=C(C)C)c1ccc(C(=O)NCCN(C(C)C)C(C)C)cc1 [Example 27] | 39%
CCN(CC)CCNC(=O)c1ccc(OC)c(OC/C=C(\C)CCC=C(C)C)c1 [Example 29] | 49%
